The source of these data is ChEMBL document CHEMBL5050856, “Atf6 modulators and uses thereof” (2021).

What all share (format): cell-based
For experiment [1], the system named is U2OS. In words: Modulation of ATF6 activity in human U2OS cells at 10 uM in presence of ER stress inducer thapsigargin (Tg) measured by TRE-luciferase reporter assay relative to control.
Experiment [2] deals with U2OS. In words: Modulation of ATF6 activity in human U2OS cells at 1 uM in presence of ER stress inducer thapsigargin (Tg) measured by TRE-luciferase reporter assay relative to control.
The subject of experiment [3] is U2OS. In words: Modulation of ATF6 activity in human U2OS cells at 10 uM measured by TRE-luciferase reporter assay relative to control.
Experiment [4] concerns U2OS. In words: Modulation of ATF6 activity in human U2OS cells at 1 uM measured by TRE-luciferase reporter assay relative to control.

Take `Cc1nn(C(C)c2ccc(C(F)(F)F)cc2C(F)(F)F)cc1C#Cc1nnc(-c2ccccn2)s1` (stereo in doubt; 2-11): the Activity with U2OS [1] and in the experiment on U2OS [2] was 50% in each case.
Regarding `O=C(Nc1cnn(CC2CCCC2)c1)c1cc(-c2ccco2)on1`, the Activity was 0% in the experiment with U2OS [3], over 150% with U2OS [1] (filed as activator), over 150% with U2OS [2] (filed as activator) and 0% with U2OS [4].
For the compound `O=C(Nc1cnn(C2CCCC2)c1)c1cc(-c2ccco2)on1`, the Activity was 0% with U2OS [3], over 150% in the experiment with U2OS [1] (filed as activator), over 150% with U2OS [2] (filed as activator) and 0% in the experiment with U2OS [4].
With `O=C(Nc1cnn(C2CCOC2)c1)c1cc(-c2ccccn2)on1` (stereo in doubt; 3-21), the Activity in the experiment with U2OS [3] is 25%; in the experiment on U2OS [1] (filed as activator), over 150%; in the experiment on U2OS [2] (filed as activator) it was over 150%; in the experiment with U2OS [4], 0%.
As for `CC(C1CCOC1)n1cc(NC(=O)c2cc(-c3ccco3)on2)cn1` (stereo in doubt; 3-26), the Activity was over 50% in the experiment with U2OS [3], over 150% with U2OS [1] (filed as activator), over 150% in the experiment with U2OS [2] (filed as activator) and 0% in the experiment with U2OS [4].
Consider `FC(F)(F)c1ccc(Cn2cc(C#Cc3nnc(-c4ccccn4)s3)cn2)c(C(F)(F)F)c1`, for which the Activity was 75% with U2OS [1] and 50% in the experiment with U2OS [2].
For `CC(C1CCOC1)n1cc(NC(=O)c2cc(-c3ccco3)on2)cn1` (stereo in doubt; 3-25), the Activity in the experiment with U2OS [3] is 0%; with U2OS [1] (filed as activator), over 150%; in the experiment on U2OS [2] (filed as activator), 100%; in the experiment on U2OS [4], 0%.
Take `CC(c1c(Cl)cccc1Cl)n1cc(C#Cc2nnc(-c3ccccn3)s2)cn1` (configuration not stated): the Activity in the experiment on U2OS [3] turned out to be 0%; in the experiment with U2OS [1] (filed as activator) it was 100%; in the experiment on U2OS [2], 75%; in the experiment with U2OS [4], 0%.
In the case of `CC(c1ccc(C(F)(F)F)cc1C(F)(F)F)n1cc(C#Cc2nnc(-c3ccccn3)s2)cn1` (stereo in doubt; 2-2), the Activity in the experiment on U2OS [1] and in the experiment on U2OS [2] was under 50% throughout.
Take `CC(C1CCCC1)n1cc(NC(=O)c2cc(-c3ccco3)on2)cn1` (stereo in doubt; 3-17): the Activity worked out at 0% in the experiment with U2OS [3], 125% in the experiment with U2OS [1] (filed as activator), 125% with U2OS [2] (filed as activator) and 0% with U2OS [4].
As for `CC(c1ccc(C(F)(F)F)cc1C(F)(F)F)n1cc(C#Cc2nnc(-c3ccccn3)s2)cn1` (stereo in doubt; 2-1), the Activity in the experiment with U2OS [1] was under 50%; with U2OS [2], 50%.
For `O=C(Nc1cnn(Cc2ccc(C(F)(F)F)cc2C(F)(F)F)c1)c1cc(-c2ccco2)on1`, in that order: under 50% and under 50%.
In the case of `O=C(Nc1cnn(C2CCOC2)c1)c1cc(-c2ccccn2)on1` (stereo in doubt; 3-20), the Activity with U2OS [3] is 0%; in the experiment with U2OS [1] (filed as activator) it was over 150%; with U2OS [2] (filed as activator), 100%; in the experiment on U2OS [4] it was 0%.
For `CC(c1ccc(C(F)(F)F)cc1C(F)(F)F)n1cc(C#Cc2nnc(-c3cnccn3)s2)cn1` (stereo in doubt; 2-21), the Activity with U2OS [1] and in the experiment on U2OS [2] was 75% each time.
As for `O=C(Nc1cnn(Cc2ccccc2)c1)c1cc(-c2ccco2)on1`, the Activity with U2OS [3] stood at 25%; in the experiment on U2OS [1] (filed as activator), 125%; in the experiment with U2OS [2] (filed as activator), 100%; with U2OS [4], 0%.
Regarding `CC(c1ccc(C(F)(F)F)cc1C(F)(F)F)n1cc(C#Cc2nnc(-c3cnccn3)s2)cn1` (stereo in doubt; 2-22), the Activity amounted to 75% with U2OS [1] and 50% in the experiment with U2OS [2].
For the compound `Cc1nn(C(C)c2ccc(C(F)(F)F)cc2C(F)(F)F)cc1C#Cc1nnc(-c2ccccn2)s1` (stereo in doubt; 2-24), the Activity with U2OS [1] and with U2OS [2] was under 50% each time.
In the case of `CC(c1ccc(C(F)(F)F)cc1C(F)(F)F)n1cc(CCc2nnc(-c3ccccn3)s2)cn1` (configuration not stated), the Activity in the experiment on U2OS [1] was under 50%; with U2OS [2] it was 75%.
Turning to `CC(C1CCOC1)n1cc(NC(=O)c2cc(-c3ccco3)on2)cn1` (stereo in doubt; 3-24), the Activity with U2OS [3] was 25%; in the experiment with U2OS [1] (filed as activator), over 150%; in the experiment with U2OS [2] (filed as activator), 100%; with U2OS [4] it was 0%.
Regarding `CC(c1ccc(C(F)(F)F)cc1C(F)(F)F)n1cc(/C=C\c2nnc(-c3ccccn3)s2)cn1` (stereo in doubt; 2-8), the results for the Activity with U2OS [1] and in the experiment on U2OS [2] (filed as activator) were 50% and 100%, respectively.
Take `CC(c1ccc(C(F)(F)F)cc1C(F)(F)F)n1cc(C#Cc2nnc(-c3cnccn3)s2)cn1` (stereo in doubt; 2-10): the values for the Activity in the experiment on U2OS [1] and in the experiment with U2OS [2] were 75% and 50%, respectively.
As for `O=C(Nc1cnn(C2CCNC2)c1)c1cc(-c2ccco2)on1` (configuration not stated), the Activity in the experiment with U2OS [3] is 0%; with U2OS [1] (filed as activator), over 150%; in the experiment with U2OS [2] (filed as activator), 125%; in the experiment with U2OS [4] it was 0%.
Consider `O=C(Nc1cnn(C2CCOC2)c1)c1cc(-c2cccs2)on1` (stereo in doubt; 3-23), for which the Activity is over 50% with U2OS [3], over 150% in the experiment on U2OS [1] (filed as activator), over 150% in the experiment with U2OS [2] (filed as activator) and 25% in the experiment with U2OS [4].
As for `O=C(Nc1cnn(C2CNC2)c1)c1cc(-c2ccco2)on1`, the Activity was 125% with U2OS [2] (filed as activator) and 0% in the experiment with U2OS [4].
In the case of `CC(c1ccc(C(F)(F)F)cc1C(F)(F)F)n1cc(/C=C\c2nnc(-c3ccccn3)s2)cn1` (stereo in doubt; 2-6), the values for the Activity in the experiment with U2OS [1] and in the experiment with U2OS [2] (filed as activator) were 50% and 100%, respectively.
For `CC(c1ccc(C(F)(F)F)cc1C(F)(F)F)n1cc(/C=C/c2nnc(-c3ccccn3)s2)cn1` (configuration not stated), the Activity in the experiment on U2OS [1] was under 50%; in the experiment with U2OS [2] (filed as activator) it was 100%.
For `CC(c1ccc(C(F)(F)F)cc1C(F)(F)F)n1cc(/C=C\c2nnc(-c3ccccn3)s2)cn1` (stereo in doubt; 2-7), the Activity in the experiment with U2OS [1] is 75%; in the experiment on U2OS [2] (filed as activator), 100%.
For the compound `O=C(Nc1cnn(Cc2ccc(C(F)(F)F)cc2)c1)c1cc(-c2ccco2)on1`, the Activity in the experiment with U2OS [1] stood at 75%; in the experiment on U2OS [2] (filed as activator) it was 100%; with U2OS [4], 0%.
In the case of `CC(C1CCCC1)n1cc(NC(=O)c2cc(-c3ccco3)on2)cn1` (stereo in doubt; 3-18), the Activity came to 0% with U2OS [3], 125% with U2OS [1] (filed as activator), 100% in the experiment with U2OS [2] (filed as activator) and 0% with U2OS [4].
On to `CC(C1CCOC1)n1cc(NC(=O)c2cc(-c3ccco3)on2)cn1` (stereo in doubt; 3-27), for which the Activity with U2OS [3] was 25%; with U2OS [1] (filed as activator), over 150%; in the experiment on U2OS [2] (filed as activator), 100%; in the experiment on U2OS [4], 0%.
As to `Cc1nn(C(C)c2ccc(C(F)(F)F)cc2C(F)(F)F)cc1C#Cc1nnc(-c2ccccn2)s1` (stereo in doubt; 2-23), the Activity with U2OS [1] worked out at 50%; in the experiment on U2OS [2], 75%.
Consider `O=C(Nc1cnn(Cc2c(Cl)cncc2Cl)c1)c1cc(-c2ccco2)on1`, for which the Activity was found to be 0% with U2OS [3], 125% in the experiment with U2OS [1] (filed as activator), 100% in the experiment with U2OS [2] (filed as activator) and 0% in the experiment on U2OS [4].
As to `CC(C1CCCC1)n1cc(NC(=O)c2cc(-c3ccco3)on2)cn1` (stereo in doubt; 3-5), the Activity in the experiment with U2OS [3] is 0%; with U2OS [1] (filed as activator) it was over 150%; in the experiment with U2OS [2] (filed as activator), 125%; in the experiment with U2OS [4] it was 0%.
On to `O=C(Nc1cnn(C2CCOC2)c1)c1cc(-c2cccs2)on1` (stereo in doubt; 3-22), for which the Activity with U2OS [3] is 25%; with U2OS [1] (filed as activator), over 150%; with U2OS [2] (filed as activator), 125%; in the experiment on U2OS [4], 0%.
Take `O=C(Nc1cnn(C2CCOC2)c1)c1cc(-c2cccs2)on1` (stereo in doubt; 3-19): the Activity was 25% in the experiment with U2OS [3], over 150% with U2OS [1] (filed as activator), over 150% in the experiment on U2OS [2] (filed as activator) and 0% with U2OS [4].
